{
  "source": "patent US4118507A",
  "about": "“Benzodioxincarboxamide lipogenesis inhibitors” (Shell Oil Company, priority 1977, dated 1978)",
  "key": {"[1]": {"tested_on": "lipogenesis in swine adipose tissue", "assay": "percent inhibition of lipogenesis from radioactive glucose in pig (swine) adipose tissue slices", "assay_type": "cell-based", "settings": "100 micrograms per milliliter, 37° C., 2 hours", "source_text": "(§1) The manner in which they cause this effect is not known with certainty; it is believed that they interfere with the synthesis of fatty acids in the tissues. Their effectiveness for this purpose has been ascertained by immersing samples of mammalian liver or adipose tissue in a liquid medium containing radioactive glucose and the test chemical for a period of time, then isolating the lipid from the treated tissue and determining the up-take of the radioactive carbon by means of scintillation counting techniques. These tests were conducted with both liver and adipose tissues, because in some animals the primary site of lipogenesis appears to be liver tissue, while in others it appears to be adipose tissue. The test animals were pigs, sheep, rabbits, cats and dogs.\nDescribed in more detail, the tests were conducted according to the following general procedure:\nTissue slices (200 milligrams for liver; 150 milligrams for adipose tissue) were incubated, at 37° C. for 2 hours with shaking in 3 milliliters of Krebs-Ringer bicarbonate solution containing one-half the normal calcium ion concentration, 60 micromoles of glucose, 0.5 micro-Curie of glucose-U-^14 C, 300 microunits of insulin, and 5% dimethyl sulfoxide (DMSO). The test compounds were added as a solution or suspension in DMSO and were present at a concentration of 100 micrograms per milliliter of the incubation mixture.\nThe incubation was terminated by addition of 0.25 milliliter of 1 N sulfuric acid. The resulting mixture was extracted with a total of 25 milliliters of chloroform:methanol (2:1, v/v). The extracts were washed according to Folch et al. (J. Biol. Chem., 226, 497-509, (1957)), air dried, and counted in a liquid scintillation counter with 15 milliliters of counting fluid (two parts toluene containing 0.4% w/v New England Nuclear Omnifluor: 1 part Triton X-100). The tests were conducted in triplicate and were accompanied by control tests in which all ingredients,proportions and conditions were the same except that no test compound was included. From the data obtained, the percent inhibition of lipid synthesis by the test compound was calculated in each case.\nCompound 1 was tested with respect to all of the indicated animal species. The other three compounds were tested only with respect to the pig.\nFrom these and other tests, it has been established that in pigs there is little lipogenic activity in the liver tissue. From these and other tests, it also has been established that swine adipose tissue utilizes glucose for lipogenesis, and to be the major site of fatty acid synthesis. The data obtained from the tests using adipose tissue and glucose are set out in Table 1, as the percent inhibition of lipogenesis compared to the results obtained in the control tests wherein only the test compound was omitted."}, "[2]": {"tested_on": "glucose incorporation in the liver", "assay": "inhibition of glucose incorporation into lipids in sheep liver tissue slices", "assay_type": "cell-based", "settings": "100 micrograms per milliliter, 37° C., 2 hours", "source_text": "as §1\n(§2) Described in more detail, the tests were conducted according to the following general procedure: […]\n(§3) The incubation was terminated by addition of 0.25 milliliter of 1 N sulfuric acid. […] The extracts were washed according to Folch et al. (J. Biol. Chem., 226, 497-509, (1957)), air dried, and counted in a liquid scintillation counter with 15 milliliters of counting fluid (two parts toluene containing 0.4% w/v New England Nuclear Omnifluor: 1 part Triton X-100). […] From the data obtained, the percent inhibition of lipid synthesis by the test compound was calculated in each case. […]"}, "[3]": {"tested_on": "glucose incorporation in adipose tissue", "assay": "inhibition of glucose incorporation into lipids in sheep adipose tissue slices", "assay_type": "cell-based", "settings": "100 micrograms per milliliter, 37° C., 2 hours", "source_text": "as §1, §2, §3"}, "[4]": {"tested_on": "swine adipose tissue lipid synthesis", "assay": "in vivo inhibition of swine adipose tissue lipid synthesis (oral dosing in feed, lipogenesis in biopsy slices)", "settings": "pigs, approximately 25 milligrams per kilogram per day in feed for seven days", "method": "Compound 1 also was tested to determine the in vivo inhibition of swine adipose tissue lipid synthesis, as follows: pigs weighing about 20 kilograms were administered a fixed drug dose of approximately 25 milligrams of drug per kilogram of animal body weight per day for seven consecutive days. The drug was formulated to contain 10% w active ingredient and was prepared as coarse granules using 4% w plasdene as the granulating agent and lactose as the carrier. […] The daily drug or placebo dose was added to 1.2 kilograms of swine ration; about one-third of the total was fed at 0800, 1200, and 1600 hours. Biopsy samples were obtained from the dorsal subcutaneous adipose tissue (ca. 1 gram) in the neck region before drug administration, after 7 days of drug administration, and 6 days after withdrawal of drug. Adipose tissue slices were prepared from the biopsy sample, and in vitro lipogenesis was determined with radioactive glucose as substrate. The incubation was similar to that previously described except there was no DMSO or test compound in the flasks."}, "[5]": {"tested_on": "glucose incorporation into liver", "assay": "inhibition of glucose incorporation into rabbit liver tissue slices", "assay_type": "cell-based, rabbits", "settings": "100 micrograms per milliliter, 37° C., 2 hours", "source_text": "as §1, §2, §3"}, "[6]": {"tested_on": "lipogenesis from glucose in the liver", "assay": "inhibition of lipogenesis from glucose in cat liver tissue slices", "assay_type": "cell-based, cats", "settings": "100 micrograms per milliliter, 37° C., 2 hours", "source_text": "as §1, §2, §3"}, "[7]": {"tested_on": "glucose utilization in adipose tissue", "assay": "inhibition of glucose utilization in cat adipose tissue slices", "assay_type": "cell-based, cats", "settings": "100 micrograms per milliliter, 37° C., 2 hours", "source_text": "as §1, §2, §3"}, "[8]": {"tested_on": "lipogenesis from glucose in adipose tissue", "assay": "inhibition of lipogenesis from glucose in dog adipose tissue slices", "assay_type": "cell-based, dogs", "settings": "100 micrograms per milliliter, 37° C., 2 hours", "source_text": "as §1, §2, §3"}, "[9]": {"tested_on": "glucose incorporation into adipose tissue", "assay": "inhibition of glucose incorporation into rabbit adipose tissue slices", "assay_type": "cell-based, rabbits", "settings": "100 micrograms per milliliter, 37° C., 2 hours", "source_text": "as §1, §2, §3"}},
  "data": [
    {"smiles": "C=CCNC(=O)C1COc2cc(Cl)ccc2O1", "note": "(centres unmarked) [Compound 3A, 6-chloro-2,3-dihydro-N-(2-propenyl)-1,4-benzodioxin-2-carboxamide]", "values": [
      {"measurement": "Percent Inhibition of lipogenesis compared to control", "setting": "[1]", "value": 38, "unit": "%"}
    ]},
    {"smiles": "C=CCNC(=O)C1COc2cc(C(C)(C)C)ccc2O1", "note": "(centres unmarked) [Compound 5, 6-(1,1-dimethylethyl)-2,3-dihydro-N-(2-propenyl)-1,4-benzodioxin-2-carboxamide]", "values": [
      {"measurement": "Percent Inhibition of lipogenesis compared to control", "setting": "[1]", "value": 36, "unit": "%"}
    ]},
    {"smiles": "C=CCNC(=O)[C@@H]1Oc2ccccc2O[C@@H]1C", "note": "(relative stereo) [Compound 4, 2,3-dihydro-3-methyl-N-(2-propenyl)-1,4-benzodioxin-2-carboxamide cis isomer]", "values": [
      {"measurement": "Percent Inhibition of lipogenesis compared to control", "setting": "[1]", "value": 68, "unit": "%"}
    ]},
    {"smiles": "C=CCNC(=O)C1COc2ccccc2O1", "note": "(centres unmarked) [Compound 1, 2,3-dihydro-N-(2-propenyl)-1,4-benzodioxin-2-carboxamide]", "values": [
      {"measurement": "inhibition of glucose incorporation in the liver", "setting": "[2]", "value": 27, "unit": "%"},
      {"measurement": "inhibition of glucose incorporation in adipose tissue", "setting": "[3]", "value": 50, "unit": "%"},
      {"measurement": "effect on lipogenic rate at day 13, compared to control animals", "setting": "[4]; biopsy 6 days after withdrawal", "value": "had significantly reduced the lipogenic rate at day 13"},
      {"measurement": "effect on lipogenesis at day 7, compared to control animals", "setting": "[4]; biopsy after 7 days of administration", "value": "had not significantly affected lipogenesis at day 7"},
      {"measurement": "inhibition of glucose incorporation into liver", "setting": "[5]", "value": 32, "unit": "%"},
      {"measurement": "inhibition of lipogenesis from glucose in the liver", "setting": "[6]", "value": 35, "unit": "%"},
      {"measurement": "inhibition of glucose utilization in adipose tissue", "setting": "[7]", "value": "did not inhibit glucose utilization in adipose tissue"},
      {"measurement": "inhibition of lipogenesis from glucose in adipose tissue", "setting": "[8]", "value": 54, "unit": "%"},
      {"measurement": "Percent Inhibition of lipogenesis compared to control", "setting": "[1]", "value": 75, "unit": "%"},
      {"measurement": "inhibition of glucose incorporation into adipose tissue", "setting": "[9]", "value": 30, "unit": "%"}
    ]},
    {"smiles": "C=CCNC(=O)C1COc2ccc(F)cc2O1", "note": "(centres unmarked) [Compound 8, 7-fluoro-2,3-dihydro-N-(2-propenyl)-1,4-benzodioxin-2-carboxamides]", "values": [
      {"measurement": "Percent Inhibition of lipogenesis compared to control", "setting": "[1]", "value": 72, "unit": "%"}
    ]},
    {"smiles": "C=CCNC(=O)C1COc2ccc(C)cc2O1", "note": "(centres unmarked) [Compound 7]", "values": [
      {"measurement": "Percent Inhibition of lipogenesis compared to control", "setting": "[1]", "value": 55, "unit": "%"}
    ]},
    {"smiles": "C=CCNC(=O)C1(C)COc2ccccc2O1", "note": "(centres unmarked) [Compound 2, 2,3-dihydro-N-(2-propenyl)-2-methyl-1,4-benzodioxin-2-carboxamide]", "values": [
      {"measurement": "Percent Inhibition of lipogenesis compared to control", "setting": "[1]", "value": 41, "unit": "%"}
    ]},
    {"smiles": "C=CCNC(=O)C1COc2cc(C)ccc2O1", "note": "(centres unmarked) [Compound 6, 2,3-dihydro-6-methyl-N-(2-propenyl)-1,4-benzodioxin-2-carboxamide]", "values": [
      {"measurement": "Percent Inhibition of lipogenesis compared to control", "setting": "[1]", "value": 80, "unit": "%"}
    ]}
  ]
}
